Assay results taken from PubChem BioAssay (NCI).
Values joined by “and” are separate entries in the source; they are usually repeats but may differ in a detail not shown here. Identical values can stand only once.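 Tested at 5 concentrations; 48 h exposure; 96-well plates; endpoints linearly interpolated, else capped at highest concentration. GI50 marks 50% less growth. The concentration for full growth arrest is given as TGI.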

System: MDA-MB-468 breast
Test: NCI tumour cell line growth inhibition, 48 h

Compound	GI50	TGI
NC(=O)c1ccc(I)c(N)c1	> 100000 nM	> 100000 nM
COc1cc2c(c(O)c1Br)C(=O)c1c(O)cc(C[C@H](C)O)cc1[C@H]2[C@H]1c2cc(C[C@H](C)O)cc(O)c2C(=O)c2c1cc(OC)c(Br)c2O	13300 nM and 16500 nM	36000 nM and 41900 nM
C=CCCCCCCCCC(=O)[O][Sn]([CH2]CCC)([CH2]CCC)[CH2]CCC	135 nM	278 nM
CC(=O)OC[C@]1(C)C=C2C(=O)[C@](C)(O)C3(CC3)C(C)=C2[C@H]1O	44.7 nM	196 nM
COc1ccc(-c2cnnc3c(-c4cccc(C(F)(F)F)c4)cnn23)cc1	5390 nM	> 100000 nM
CC1=CC(=Nc2ccc(N(CCCl)CCCl)cc2)C=C(C)C1=O	191 nM	822 nM
O=C1CCCCN1CCCCC#Cc1ccccc1C#Cc1ccc([N+](=O)[O-])cc1	4580 nM	26100 nM
N#CSc1c[nH]c2cccc(/C=C/C(=O)/C=C(/C=C/c3cccc4[nH]cc(SC#N)c34)OB(F)F)c12	300 nM	1190 nM
CC1(C)OC2[C@@H](CNC(=O)NC(=O)NC(=O)CI)O[C@@H](n3cnc4c(NC(=O)Nc5ccccc5)ncnc43)[C@H]2O1 (stereo not given in full)	6780 nM	14800 nM
Oc1c(CN2CCC(N3CCCCC3)CC2)cc(Cc2cc(CN3CCC(N4CCCCC4)CC3)c(O)c3ncccc23)c2cccnc12	1150 nM	2880 nM
CCCn1cnc2c(SCc3ccccc3Cl)nc(N)nc21	13400 nM	48400 nM
Oc1ccc2ccccc2c1N=Nc1nccs1	1640 nM	6160 nM
O=C1Nc2c(C(F)(F)F)cccc2[C@]1(c1ccc(O)cc1)c1ccc(OC(F)(F)F)cc1	6480 nM	21400 nM
CCN(CC)c1ccc(/C=C/c2ccc3cc(C)ccc3[n+]2CC)cc1	20.5 nM	464 nM
OCc1c[nH]c2ccccc12	25100 nM	75000 nM
FC(F)(F)c1cccc(Nc2nccc(-c3cnn4nc(-c5ccccc5)ccc34)n2)c1	7420 nM	> 23500 nM
C=C1C(=O)O[C@H]2[C@H]1CC/C(COC(=O)c1ccc3ccccc3c1)=C\CC[C@@]1(C)O[C@@H]21	784 nM	2610 nM
C[C@@H]1OC(O)[C@@H](F)[C@H](O)[C@@H]1O (stereo not given in full)	> 100000 nM	> 100000 nM
Oc1ccc(NCc2nc3ccccc3[nH]2)cc1	88400 nM	> 100000 nM
CC[C@@H]1C(=O)N(C)c2cnc(Nc3ccc(C(=O)NC4CCN(C)CC4)cc3OC)nc2N1C1CCCC1	1.35 nM and < 10 nM	16.4 nM and < 18.3 nM

Compound	GI50	TGI
CC(C)(C)OC(=O)N1CCc2c(sc3ncnc(N/N=C/c4cccc5ccccc45)c23)C1	4210 nM	28100 nM
CCOc1cc2c(Cl)ncnc2c(OCC)c1OCC	781 nM	3560 nM
CN1CCN(C(=O)OCc2nc3c(N4CCOCC4)nc(Cl)nc3n2C)CC1	923 nM	2330 nM
Oc1ccc(CN2CCC(N3CCCCC3)CC2)c2cccnc12	25200 nM	73900 nM
O=C1c2cc(Cl)ccc2S(=O)(=O)c2c(NCCCNCCO)nc3ccccc3c21	1060 nM	2950 nM
C=C1C(=O)O[C@H]2[C@H]1CC/C(Cn1cc(-c3ccc(OC)cc3)nn1)=C\CC[C@@]1(C)O[C@@H]21	892 nM	2560 nM
COC(=O)[C@]12CC[C@@H](C)[C@H](C)[C@@H]1C1=CC[C@@H]3[C@@]4(C)C/C(=N\O)[C@H](O)[C@@]5(C)COC(=C45)C[C@@]3(C)[C@]1(C)CC2	6220 nM	20600 nM
N#Cc1c(-c2ccc(F)cc2)nc(N/N=C/c2c[nH]c3ccccc23)nc1N1CCOCC1	3460 nM	22700 nM
CS(=O)(=O)Nc1cc(-c2ccc3ncc(C#N)c(NCc4cccc(F)c4)c3c2)cnc1Cl	102 nM	926 nM
CC[C@]1(O)C[C@@H]2CN(CCc3c([nH]c4ccccc34)[C@@](C(=O)OC)(c3cc4c(cc3OC)N(C)[C@H]3[C@@](O)(C(=O)OC)[C@H](OC(C)=O)[C@]5(CC)C=CCN6CC[C@]43[C@@H]65)C2)C1	< 10 nM	< 10 nM
N#Cc1ccc(O)c(C2=NCC(c3cccc(Oc4ccccc4)c3)O2)c1 (stereo not given)	841 nM	7070 nM
C=CC(=O)N1CC2(CCN(c3nc(OC4CCN(CCCOC)CC4)nc4c(OCC(F)(F)F)c(-c5c(C)ccc6[nH]ncc56)c(C5CC5)cc34)CC2)C1	1590 nM	3290 nM
Cc1ccc(NC(=O)c2cccc(N(C)C)c2)cc1NC(=O)c1ccc(O)cc1	> 57200 nM	> 100000 nM
O=C(/C(Br)=C/c1ccccc1)c1ccccc1	1120 nM	2560 nM
CCN(CC)CCOc1ccc(/C(=C(\Cl)c2ccccc2)c2ccccc2)cc1	1360 nM and 1570 nM	5970 nM and 3050 nM
O=c1[nH]ncc(Br)c1Br	1270 nM	3210 nM
COc1cc(C2=NOC(c3cc(OC)c(OC)c(OC)c3)C2)ccc1OCCCCOc1cc2c(cc1OC)C(=O)N1CCC[C@H]1C=N2 (stereo not given in full)	225 nM	593 nM
CC/C(=C(/c1ccc(O)cc1)c1ccc(OCCNC)cc1)c1ccccc1	1420 nM	2960 nM
O=C(N/N=C/c1ccccc1O)c1ccccc1Nc1ccnc(C(F)(F)F)c1	272 nM	9140 nM
COc1cc(C2NC(=O)c3ccccc3N2)ccc1OCCCCCOc1c(OC)cc(C2=NOC(c3cc(OC)c(OC)c(OC)c3)C2)cc1OC (stereo not given)	80.5 nM	97300 nM
